The results in this text go back to patent US9670242B2, “Tetracyclic anthraquinone derivatives” (Tianjin Hemay Bio-Tech Co., Ltd, priority 2012, dated 2017).

A short description of series [1]: Solubility of the compound in water. The format is physicochemical.
Series [2] has as its system SK-OV-3 cells. Description: SK-OV-3 cell growth inhibition test (MTT assay). In kind it is cell-based, human. Particulars: growth inhibition at 667 nM, 69 h. The protocol:
SK-OV-3 Cell Growth Inhibition Test (MTT Assay)
Cell strains: SK-OV-3 (human ovarian cancer cell strains); MTT; antitumor compounds; DMSO.
(§1) II. Reagents and Consumable Materials
Culture medium: 90% McCoy's 5A+10% FBS; Pancreatin (0.25% (w/v) solution was formulated with PBS, 0.53 mM of EDTA was added in the formulation); PBS; 96-well culture plate.
(§2) 1. A plate (10 cm) of cells in logarithmic growth phase that were normally cultured was collected;
(§3) 2. The culture solution was sucked out. The plate was washed with 5 mL of PBS once or twice;
(§4) 3. PBS was sucked out. 1.5 mL of 0.25% pancreatin was added to infiltrate the cells;
4. The pancreatin was sucked out. The culture plate was placed in an incubator. Digestion was carried out for about 5 min at 37° C.;
5. 4.5 mL of complete culture solution was added to the culture plate to stop the digestion. The cells were carefully scoured with micropipette (1 ml) to give a uniform cell suspension. The suspension was implanted into a 96-well cell culture disc by 4000 cells/100 μL per well. The culture plate was incubated overnight under 5% CO2 at 37° C. In day 2, 100 μL of culture solution comprising a compound was added in each well. The plate was further incubated for 69 h under 5% CO2 at 37° C.;
(§5) 6. The culture solution was sucked out;
(§6) 7. 100 μL of serum-free culture solution containing 0.5 mg/mL MTT was added in each well. The plate was incubated for 3 h;
(§7) 8. The culture solution was carefully sucked out;
9. 100 μL of DMSO was added in each well and vibrated to dissolve;
(§8) 10. OD values were determined at 490 nM.
(§9) IV. Results and Treatments
(§10) 1. Calculation of Relative Inhibition Ratio The inhibition ratio of a compound on cell growth=(PC−n)/(PC−NC)×100%
(§11) PC: OD values of cells after normal growth in control wells without a compound;
(§12) n: OD values of cells after growth in test wells with a compound;
(§13) NC: Background OD values of blank wells without a compound and cells.

Series [3] has as its system NCI-H446 cells. Briefly: NCI-H446 cell growth inhibition test (MTT assay). The format is cell-based, human. Particulars: growth inhibition at 222 nM, 70 h. How it is done:
NCI-H446 Cell Growth Inhibition Test (MTT Assay)
Cell strains: NCI-H446 (human small cell lung cancer cell strains); MTT; antitumor compounds; DMSO.
as §1
(§14) Culture medium: 90% RPMI-1640+10% FBS; Pancreatin (0.25% (w/v) solution was formulated with PBS, 0.53 mM of EDTA was added in the formulation); PBS; 96-well culture plate.
as §2, §3, §4
4. The culture plate was placed in an incubator. Digestion was carried out for about 3 min at 37° C.;
5. 3 mL of complete culture solution was added to the culture plate to stop the digestion. The cells were carefully scoured with micropipette (1 ml) to give a uniform cell suspension. The suspension was implanted into a 96-well cell culture disc by 4000 cells/100 μL per well. The culture plate was incubated overnight under 5% CO2 at 37° C. In day 2, 100 μL of culture solution comprising a compound was added in each well. The plate was further incubated for 70 h under 5% CO2 at 37° C.;
as §5, §6, §7
(§15) 9. 100 μL of DMSO was added into each well and vibrated to dissolve;
as §8, §9, §10, §11, §12, §13
(Tetrazolium dyes change colour on reduction, which living cells bring about.)

For series [4], the system named is BxPc-3 cells. Description: BxPc-3 cell growth inhibition test (MTT assay). Particulars: growth inhibition at 2000 nM, 70 h. In kind it is cell-based, human. The protocol:
BxPc-3 Cell Growth Inhibition Test (MTT Assay)
Cell strains: BxPC-3 (human pancreatic cancer cell strains); MTT; antitumor compounds; DMSO.
as §1, §14, §2, §3, §4
4. The culture plate was placed in an incubator. Digestion was carried out for about 8 min at 37° C.;
5. 4.5 mL of complete culture solution was added to the culture plate to stop the digestion. The cells were carefully scoured with micropipette (1 ml) to give a uniform cell suspension. The suspension was implanted into a 96-well cell culture disc by 5000 cells/100 μL per well. The culture plate was incubated overnight under 5% CO2 at 37° C. In day 2, 100 μL of culture solution comprising a compound was added in each well. The plate was further incubated for 70 h under 5% CO2 at 37° C.;
as §5, §6, §7, §15, §8, §9, §10, §11, §12, §13

The test system of series [5] is 22Rv1 cells. Description: 22Rv1 cell growth inhibition test (SRB assay). In kind it is cell-based, human. Particulars: growth inhibition at 222 nM, 73 h. The protocol: 22Rv1 Cell Growth Inhibition Test (SRB Assay)
Cell strains: 22Rv1 (human prostate cancer cell strains); SRB: 0.4% (w/v) working solution was formulated with 1% glacial acetic acid, reserved at 4° C.; antitumor compounds; DMSO.
as §1, §14, §2, §3
(§16) 3. 1.5 mL of 0.25% pancreatin was added to the plate to infiltrate the cells;
(§17) 4. The pancreatin was sucked out. The culture plate was placed in an incubator. Digestion was carried out for about 3 min at 37° C.;
5. 4 mL of complete culture solution was added to the culture plate to stop the digestion. The cells were carefully scoured with micropipette (1 ml) to give a uniform single cell suspension. The suspension was implanted into a 96-well cell culture plate by 7000 cells/100 μL per well. The culture plate was incubated overnight under 5% CO2 at 37° C. In day 2, 100 μL of culture solution comprising a compound was added in each well. The plate was further incubated for 73 h under 5% CO2 at 37° C.;
(§18) 6. The culture solution was sucked out. 100 uL of TCA fixed cells which were diluted to 10% were added to each well. The plate was kept in a refrigerator for 1 h at 4° C.
(§19) 7. TCA stationary liquid was sucked out. Each well was washed with 150 μL of ddH2O five times;
(§20) 8. After the stationary liquid was cleansed, the plate was dried in the air at the room temperature;
(§21) 9. 60 μL of SRB staining solution was added in each well. The well was stained for 15 min at the room temperature;
(§22) 10. The SRB staining solution was sucked out. Each well was washed with 150 μL of 1% glacial acetic acid five times;
(§23) 11. After the SRB staining solution was cleansed, the plate was dried in the air at the room temperature;
(§24) 12. 100 μL of 10 mM Tris was added in each well. The plate was vibrated to dissolve out SRB;
(§25) 13. OD values were determined at 570 nM.
as §9, §10, §11, §12, §13

Series [6] has as its system MDA-MB-453 cells. Briefly: MDA-MB-453 cell growth inhibition test (SRB assay). Particulars: growth inhibition at 2000 nM, 69.5 h. The format is cell-based, human. How it is done: MDA-MB-453 Cell Growth Inhibition Test (SRB Assay)
Cell strains: MDA-MB-453 (human breast cancer cell strains); SRB: 0.4% (w/v) working solution was formulated with 1% glacial acetic acid, reserved at 4° C.; antitumor compounds; DMSO.
as §1
Culture medium: 90% L15+10% FBS; pancreatin (0.25% (w/v) solution was formulated with PBS, 0.53 mM of EDTA was added in the formulation); PBS; 96-well culture plate.
as §2, §3, §16, §17
5. 4 mL of complete culture solution was added to the culture plate to stop the digestion. The cells were carefully scoured with micropipette (1 ml) to give a uniform single cell suspension. The suspension was implanted into a 96-well cell culture plate by 7000 cells/100 μL per well. The culture plate was incubated overnight under 5% CO2 at 37° C. In day 2, 100 μL of culture solution comprising a compound was added in each well.
The plate was further incubated for 69.5 h under 5% CO2 at 37° C.;
as §18, §19, §20, §21, §22, §23, §24, §25, §9, §10, §11, §12, §13

Each structure is given as a SMILES string.

Regarding `CC(=O)O.COc1cccc2c1C(=O)c1c(O)c3c(c(O)c1C2=O)CC(O)(C(=O)COC(=O)CCC(=O)NCCc1cccnc1)CC3O[C@H]1C[C@H](n2cccc2)[C@H](O)[C@H](C)O1` (stereo partly drawn) [Example 85], in series [1], the “solubility of the compound in water” value is given as “more than 11 mg/ml”.
On the same count and under the same terms, the entry for `CC(=O)O.COc1cccc2c1C(=O)c1c(O)c3c(c(O)c1C2=O)CC(O)(C(=O)COC(=O)CCC(=O)NCc1ccncc1)CC3O[C@H]1C[C@H](n2cccc2)[C@H](O)[C@H](C)O1` (stereo partly drawn) [Example 82] is “more than 6 mg/ml”.
As to `COc1cccc2c1C(=O)c1c(O)c3c(c(O)c1C2=O)CC(O)(C(=O)COC(=O)CCC(=O)NCCc1ccc(S(N)(=O)=O)cc1)CC3OC1CC(n2cccc2)C(O)C(C)O1` (stereo not drawn) [Example 38], the “Inhibition Ratio (%)” value in series [2] is reported as 67.6%; in series [3] it was 62.6%; in series [4], 82.4%; in series [5], 56.3%; in series [6], 75.8%.
On the same counts, the results for `COc1cccc2c1C(=O)c1c(O)c3c(c(O)c1C2=O)CC(O)(C(=O)COC(=O)CCC(=O)N(CCO)CCO)CC3OC1CC(n2cccc2)C(O)C(C)O1` (stereo not drawn) [Example 64] are 65.9%, 51.6%, 83.7%, 54.8% and 73.5%.
On to `COc1cccc2c1C(=O)c1c(O)c3c(c(O)c1C2=O)CC(O)(C(=O)COC(=O)CCC(=O)Nc1ccc(N2CCOCC2)nc1)CC3OC1CC(n2cccc2)C(O)C(C)O1` (stereo not drawn) [Example 20], for which the “Inhibition Ratio (%)” value in series [2] turned out to be 62.6%; in series [3], 68%; in series [4], 84.1%; in series [5], 60.9%; in series [6], 82.4%.
For `COc1cccc2c1C(=O)c1c(O)c3c(c(O)c1C2=O)CC(O)(C(=O)COC(=O)CCC(=O)N1CCN(CCO)CC1)CC3OC1CC(n2cccc2)C(O)C(C)O1` (stereo not drawn) [Example 8], in that order: 60%, 59.5%, 82.6%, 56.8% and 75.3%.
Consider `COc1cccc2c1C(=O)c1c(O)c3c(c(O)c1C2=O)CC(O)(C(=O)COC(=O)CCC(=O)NCCCN1CCOCC1)CC3OC1CC(n2cccc2)C(O)C(C)O1` (stereo not drawn) [Example 12], for which the “Inhibition Ratio (%)” value in series [2] is on record as 48.8%; in series [3], 54.6%; in series [4] it was 74.9%; in series [5], 53.3%; in series [6] it was 73.7%.
For `COc1cccc2c1C(=O)c1c(O)c3c(c(O)c1C2=O)CC(O)(C(=O)COC(=O)CCC(N)=O)CC3OC1CC(n2cccc2)C(O)C(C)O1` (stereo not drawn) [Example 66], in that order: 66.5%, 56.2%, 83.1%, 59% and 73.9%.
On the same counts, the results for `COc1cccc2c1C(=O)c1c(O)c3c(c(O)c1C2=O)CC(O)(C(=O)COC(=O)CCC(=O)NCCOCCOCCOCCO)CC3O[C@H]1C[C@H](n2cccc2)[C@H](O)[C@H](C)O1` (stereo partly drawn) [Example 1, 10-((3′-(pyrrol-1-yl)-2′,3′,6′-trideoxy-alphal-l-lyxo-hexylpyranyl)oxy)-7,8,9,10-tetrahydro-6,8,11-trihydroxy-13-oxo-14-(4-(2-(2-(2-(2-hydroxyethoxy)ethoxy)ethoxy)ethylamino)-4-oxo-butyrato)-1-methoxy-5,12-naphthalenedione] are 57.3%, 43.2%, 82.5%, 52.2% and 77.7%.
On the same counts, the results for `CCN1CCN(C(=O)CCC(=O)OCC(=O)C2(O)Cc3c(O)c4c(c(O)c3C(OC3CC(n5cccc5)C(O)C(C)O3)C2)C(=O)c2c(OC)cccc2C4=O)CC1` (stereo not drawn) [Example 40] are 47.9%, 49%, 76.5%, 50.5% and 73%.
As to `COc1cccc2c1C(=O)c1c(O)c3c(c(O)c1C2=O)CC(O)(C(=O)COC(=O)CCC(=O)NS(C)(=O)=O)CC3OC1CC(n2cccc2)C(O)C(C)O1` (stereo not drawn) [Example 94], the “Inhibition Ratio (%)” value in series [2] worked out at 71.4%; in series [3] it was 48.4%; in series [4] it was 84.9%; in series [5], 60.7%; in series [6], 75.8%.
Regarding `COc1cccc2c1C(=O)c1c(O)c3c(c(O)c1C2=O)CC(O)(C(=O)COC(=O)CCC(=O)NCc1ccccn1)CC3OC1CC(n2cccc2)C(O)C(C)O1` (stereo not drawn) [Example 30], the “Inhibition Ratio (%)” value is recorded as 59.9% in series [2]; 61% in series [3]; 85.2% in series [4]; 62.3% in series [5]; 79.9% in series [6].
Turning to `COc1cccc2c1C(=O)c1c(O)c3c(c(O)c1C2=O)CC(O)(C(=O)COC(=O)CCC(=O)Nc1ccncc1)CC3OC1CC(n2cccc2)C(O)C(C)O1` (stereo not drawn) [Example 22], the “Inhibition Ratio (%)” value in series [2] stood at 60.3%; in series [3], 62.1%; in series [4] it was 82%; in series [5], 56.3%; in series [6] it was 71.1%.
